Measured values taken from paper PMC5668658 (Biochemistry and Biophysics Reports, 2015).

Assays:
Type in all cases: cell-based
[1] = target: T1, organic cation transporter 1 (OCT1/SLC22A1) (Homo sapiens, UniProt O15245); test: inhibition of OCT1-specific [3H]atenolol uptake at […] in MDCKII cells
T1 sequence (O15245 1-554): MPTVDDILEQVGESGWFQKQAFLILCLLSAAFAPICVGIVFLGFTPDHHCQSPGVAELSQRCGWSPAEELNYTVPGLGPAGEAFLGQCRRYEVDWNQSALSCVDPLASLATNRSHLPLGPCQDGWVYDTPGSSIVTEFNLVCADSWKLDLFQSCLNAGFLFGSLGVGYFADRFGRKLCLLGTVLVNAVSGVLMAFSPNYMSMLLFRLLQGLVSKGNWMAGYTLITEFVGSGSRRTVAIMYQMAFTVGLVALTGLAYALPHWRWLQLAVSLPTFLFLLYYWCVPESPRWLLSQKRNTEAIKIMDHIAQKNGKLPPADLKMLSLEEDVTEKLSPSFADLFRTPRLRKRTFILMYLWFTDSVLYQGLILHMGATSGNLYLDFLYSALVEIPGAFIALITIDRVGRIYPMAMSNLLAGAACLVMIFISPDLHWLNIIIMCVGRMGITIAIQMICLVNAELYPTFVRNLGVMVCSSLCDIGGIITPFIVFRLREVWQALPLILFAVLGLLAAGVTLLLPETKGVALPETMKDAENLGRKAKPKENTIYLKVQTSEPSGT

[2] = target: T1, organic cation transporter 1 (OCT1/SLC22A1); test: inhibition of OCT1-specific [3H]atenolol uptake in MDCKII cells stably expressing OCT1; MPP+ uptake also inhibited
[3] = target: T1, organic cation transporter 1 (OCT1/SLC22A1); test: inhibition of OCT1-specific [3H]atenolol uptake in MDCKII cells stably expressing OCT1

SMILES	inhibition of OCT1-specific [3H]atenolol uptake at 100 μM in MDCKII cells [1]	other results
O=C(CCc1ccc(O)cc1)c1c(O)cc(O)cc1O[C@@H]1O[C@H](CO)[C@@H](O)[C@H](O)[C@H]1O [Phlorizin]	also exhibited inhibitory activities comparable to those of their aglycones	–
O=c1c(O)c(-c2ccc(O)c(O)c2)oc2cc(O)cc(O)c12 [quercetin]	–	Ki [2]: 48 µM
O=c1cc(-c2ccccc2)oc2cc(O)c(O)c(O)c12 [Baicalein]	exhibited the most potent inhibitory activity	–
O=C(CCc1ccc(O)cc1)c1c(O)cc(O)cc1O [phloretin]	–	Ki [3]: 38 µM
